# Data: ChEMBL document CHEMBL1201862, “PubChem BioAssay data set” (2004)
#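 Test compounds were applied to cells in 96-well plates for 48 hours at 5 doses. GI50: concentration for 50% inhibition of growth.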 Active and inactive are the calls of the source. No stated cut-off is given here; in the data, active = GI50 up to about 1.1 µM and inactive = higher.
# Assays:
# Assay in all cases: inhibition of tumour cell growth, NCI panel, 48 h
# A549 = tested on: A549
# ACHN = tested on: ACHN
# BT-549 = tested on: BT-549
# HCC 2998 = tested on: HCC 2998
# HT-29 = tested on: HT-29
# Hs-578T = tested on: Hs-578T
# K562 = tested on: K562
# KM12 = tested on: KM12
# LOX IMVI = tested on: LOX IMVI
# MDA-MB-435 = tested on: MDA-MB-435
# NCI-H23 = tested on: NCI-H23
# OVCAR-3 = tested on: OVCAR-3
# RPMI-8226 = tested on: RPMI-8226
# SF-295 = tested on: SF-295
# SK-MEL-28 = tested on: SK-MEL-28
# SK-MEL-2 = tested on: SK-MEL-2
# SNB-75 = tested on: SNB-75
# SW-620 = tested on: SW-620
# UACC-62 = tested on: UACC-62
Compound,GI50 (A549),GI50 (ACHN),GI50 (BT-549),GI50 (HCC 2998),GI50 (HT-29),GI50 (Hs-578T),GI50 (K562),GI50 (KM12),GI50 (LOX IMVI),GI50 (MDA-MB-435),GI50 (NCI-H23),GI50 (OVCAR-3),GI50 (RPMI-8226),GI50 (SF-295),GI50 (SK-MEL-28),GI50 (SK-MEL-2),GI50 (SNB-75),GI50 (SW-620),GI50 (UACC-62)
C=C(C)[C@@H]1CC[C@]2(C(=O)O)CC[C@]3(C)[C@H](CC[C@@H]4[C@@]5(C)CC(=O)C(C)(C)[C@@H]5CC[C@]43C)[C@@H]12,5.56 µM (inactive),7.53 µM (inactive),10.3 µM (inactive),5.9 µM (inactive),7.19 µM (inactive),9.48 µM (inactive),6.38 µM (inactive),8.77 µM (inactive),8.36 µM (inactive),8.02 µM (inactive),10.9 µM (inactive),6.38 µM (inactive),4.48 µM (inactive),6.47 µM (inactive),8.11 µM (inactive),4.52 µM (inactive),10.6 µM (inactive),7.23 µM (inactive),3.28 µM (inactive)
O=C(NCCCNCCNC(=O)c1cc(-c2ccccc2)nc2ccccc12)c1cc(-c2ccccc2)nc2ccccc12,1.73 µM (inactive),1.79 µM (inactive),11.6 µM (inactive),1.7 µM (inactive),1.52 µM (inactive),2.37 µM (inactive),1.94 µM (inactive),1.91 µM (inactive),1.58 µM (inactive),1.72 µM (inactive),,1.97 µM (inactive),3.25 µM (inactive),1.73 µM (inactive),1.82 µM (inactive),2.24 µM (inactive),1.51 µM (inactive),1.65 µM (inactive),2.22 µM (inactive)
N#CC(c1ccccc1)N(CCc1ccccc1)C(=O)c1ccccc1 (stereo not drawn),> 100 µM (inactive),> 91.8 µM (inactive),> 56.2 µM (inactive),> 100 µM (inactive),> 100 µM (inactive),26.2 µM (inactive),> 100 µM (inactive),> 100 µM (inactive),> 100 µM (inactive),> 100 µM (inactive),71.9 µM (inactive),> 100 µM (inactive),> 100 µM (inactive),38.5 µM (inactive),> 100 µM (inactive),> 64.7 µM (inactive),12.7 µM (inactive),> 100 µM (inactive),51.2 µM (inactive)
NC1=CN(Cc2ccccc2)C2=N/C(=C\c3ccccc3)C(=O)N12,> 100 µM (inactive),> 100 µM (inactive),> 100 µM (inactive),> 100 µM (inactive),> 100 µM (inactive),> 100 µM (inactive),48.8 µM (inactive),96.8 µM (inactive),> 100 µM (inactive),50.1 µM (inactive),> 100 µM (inactive),> 100 µM (inactive),71.3 µM (inactive),> 100 µM (inactive),> 100 µM (inactive),> 100 µM (inactive),> 100 µM (inactive),> 100 µM (inactive),> 100 µM (inactive)
O=C1/C(=C/c2ccc([N+](=O)[O-])cc2)CNC/C1=C\c1ccc([N+](=O)[O-])cc1,17.5 µM (inactive),12.3 µM (inactive),2.69 µM (inactive),5.62 µM (inactive),1.41 µM (inactive),4.36 µM (inactive),0.188 µM (active),1.36 µM (inactive),2.09 µM (inactive),10.4 µM (inactive),4.62 µM (inactive),2.45 µM (inactive),0.382 µM (active),10.2 µM (inactive),1.82 µM (inactive),31.8 µM (inactive),2.6 µM (inactive),0.638 µM (active),12.3 µM (inactive)
CC(C)NC(=O)OCCN=C1c2ccccc2C(Br)C(Br)c2ccccc21 (stereo not drawn),24.7 µM (inactive),7.6 µM (inactive),10.4 µM (inactive),22.7 µM (inactive),4.7 µM (inactive),8.41 µM (inactive),1.06 µM (active),21.8 µM (inactive),2.94 µM (inactive),7.96 µM (inactive),15.6 µM (inactive),12.1 µM (inactive),7.83 µM (inactive),19 µM (inactive),13.2 µM (inactive),23.7 µM (inactive),8.04 µM (inactive),3.76 µM (inactive),10.1 µM (inactive)
Cc1cccc(NC(=S)Nc2ccc(Cl)cc2)n1,,> 100 µM (inactive),> 100 µM (inactive),> 100 µM (inactive),> 100 µM (inactive),> 100 µM (inactive),> 100 µM (inactive),3.1 µM (inactive),> 100 µM (inactive),> 100 µM (inactive),> 100 µM (inactive),,> 100 µM (inactive),> 100 µM (inactive),> 100 µM (inactive),> 100 µM (inactive),> 100 µM (inactive),> 100 µM (inactive),> 100 µM (inactive)
C/C(=N/c1[nH]c(=O)cc2c1C(=O)CC2)N(C)C,> 200 µM (inactive),> 200 µM (inactive),> 200 µM (inactive),> 200 µM (inactive),> 200 µM (inactive),> 200 µM (inactive),> 200 µM (inactive),> 200 µM (inactive),> 200 µM (inactive),> 200 µM (inactive),> 200 µM (inactive),> 200 µM (inactive),> 200 µM (inactive),> 200 µM (inactive),> 200 µM (inactive),> 200 µM (inactive),> 200 µM (inactive),> 200 µM (inactive),> 200 µM (inactive)
O=c1[nH]c2cc(C(F)(F)F)ccc2nc1Cc1ccccc1,,52.6 µM (inactive),> 100 µM (inactive),> 100 µM (inactive),> 100 µM (inactive),34.9 µM (inactive),62.2 µM (inactive),> 100 µM (inactive),> 100 µM (inactive),> 100 µM (inactive),23.4 µM (inactive),,> 100 µM (inactive),40.6 µM (inactive),> 100 µM (inactive),> 100 µM (inactive),41.6 µM (inactive),> 100 µM (inactive),> 100 µM (inactive)
CCOP(=O)(Nc1ccc(-c2ccccc2)cc1)OCC,81.5 µM (inactive),> 100 µM (inactive),> 100 µM (inactive),> 100 µM (inactive),75.7 µM (inactive),> 100 µM (inactive),74.1 µM (inactive),> 100 µM (inactive),,91.6 µM (inactive),> 100 µM (inactive),49.9 µM (inactive),43.3 µM (inactive),> 100 µM (inactive),> 100 µM (inactive),> 100 µM (inactive),74.3 µM (inactive),,> 100 µM (inactive)
Cc1ccc(S(=O)(=O)N2CCSCCSCCSCCN(S(=O)(=O)c3ccc(C)cc3)CC2)cc1,> 100 µM (inactive),> 100 µM (inactive),> 100 µM (inactive),> 100 µM (inactive),> 100 µM (inactive),> 100 µM (inactive),> 100 µM (inactive),> 100 µM (inactive),,> 100 µM (inactive),> 100 µM (inactive),> 100 µM (inactive),> 100 µM (inactive),> 100 µM (inactive),> 100 µM (inactive),> 100 µM (inactive),61 µM (inactive),> 100 µM (inactive),> 100 µM (inactive)
C=CCc1cccc2cc(C(=O)NCc3ccccc3)c(=N)oc12,40.1 µM (inactive),19.9 µM (inactive),40.3 µM (inactive),25.1 µM (inactive),34.4 µM (inactive),18.8 µM (inactive),> 100 µM (inactive),34.4 µM (inactive),42.7 µM (inactive),25.8 µM (inactive),31.9 µM (inactive),20.7 µM (inactive),79.8 µM (inactive),,30.7 µM (inactive),12.1 µM (inactive),31.3 µM (inactive),49.4 µM (inactive),22.8 µM (inactive)
Cc1cn(C2CC(O)C(Cn3cc(Cn4ncc(=O)[nH]c4=O)nn3)O2)c(=O)[nH]c1=O (stereo not drawn),> 100 µM (inactive),> 100 µM (inactive),> 100 µM (inactive),> 100 µM (inactive),> 100 µM (inactive),> 100 µM (inactive),,> 100 µM (inactive),> 100 µM (inactive),> 100 µM (inactive),> 100 µM (inactive),> 100 µM (inactive),> 100 µM (inactive),> 100 µM (inactive),> 100 µM (inactive),> 100 µM (inactive),> 100 µM (inactive),> 100 µM (inactive),> 100 µM (inactive)
Cc1nnc(N)nc1/C=C\c1ccc(N(C)C)cc1,9.79 µM (inactive),15 µM (inactive),> 20.9 µM (inactive),3.78 µM (inactive),8.83 µM (inactive),5.82 µM (inactive),86.9 µM (inactive),12.3 µM (inactive),4.88 µM (inactive),6.27 µM (inactive),7.01 µM (inactive),,9.86 µM (inactive),> 41.2 µM (inactive),> 45.9 µM (inactive),39.8 µM (inactive),2.67 µM (inactive),> 64.6 µM (inactive),4.27 µM (inactive)
COc1ccc(Nc2nc(N)c(C(=O)c3ccco3)s2)cc1,27.3 µM (inactive),47.8 µM (inactive),> 67.8 µM (inactive),15.7 µM (inactive),7.78 µM (inactive),22.4 µM (inactive),4.72 µM (inactive),8.59 µM (inactive),32.5 µM (inactive),3.15 µM (inactive),> 61.4 µM (inactive),20.6 µM (inactive),16.6 µM (inactive),31.6 µM (inactive),> 88.7 µM (inactive),23 µM (inactive),,13.2 µM (inactive),45.8 µM (inactive)
